This assay deals with Recombinant Human Poly(ADP-Ribose) Polymerase (PARP), PARP-1 (Homo sapiens (Human), UniProt P09874). As to conditions: read-out: PARP-1 (Ki); Table 1; text calls the values EC50s.

The record followed here is patent US9283222B2 (priority 2006, dated 2016).

Chain of Recombinant Human Poly(ADP-Ribose) Polymerase (PARP), PARP-1 (P09874 whole entry): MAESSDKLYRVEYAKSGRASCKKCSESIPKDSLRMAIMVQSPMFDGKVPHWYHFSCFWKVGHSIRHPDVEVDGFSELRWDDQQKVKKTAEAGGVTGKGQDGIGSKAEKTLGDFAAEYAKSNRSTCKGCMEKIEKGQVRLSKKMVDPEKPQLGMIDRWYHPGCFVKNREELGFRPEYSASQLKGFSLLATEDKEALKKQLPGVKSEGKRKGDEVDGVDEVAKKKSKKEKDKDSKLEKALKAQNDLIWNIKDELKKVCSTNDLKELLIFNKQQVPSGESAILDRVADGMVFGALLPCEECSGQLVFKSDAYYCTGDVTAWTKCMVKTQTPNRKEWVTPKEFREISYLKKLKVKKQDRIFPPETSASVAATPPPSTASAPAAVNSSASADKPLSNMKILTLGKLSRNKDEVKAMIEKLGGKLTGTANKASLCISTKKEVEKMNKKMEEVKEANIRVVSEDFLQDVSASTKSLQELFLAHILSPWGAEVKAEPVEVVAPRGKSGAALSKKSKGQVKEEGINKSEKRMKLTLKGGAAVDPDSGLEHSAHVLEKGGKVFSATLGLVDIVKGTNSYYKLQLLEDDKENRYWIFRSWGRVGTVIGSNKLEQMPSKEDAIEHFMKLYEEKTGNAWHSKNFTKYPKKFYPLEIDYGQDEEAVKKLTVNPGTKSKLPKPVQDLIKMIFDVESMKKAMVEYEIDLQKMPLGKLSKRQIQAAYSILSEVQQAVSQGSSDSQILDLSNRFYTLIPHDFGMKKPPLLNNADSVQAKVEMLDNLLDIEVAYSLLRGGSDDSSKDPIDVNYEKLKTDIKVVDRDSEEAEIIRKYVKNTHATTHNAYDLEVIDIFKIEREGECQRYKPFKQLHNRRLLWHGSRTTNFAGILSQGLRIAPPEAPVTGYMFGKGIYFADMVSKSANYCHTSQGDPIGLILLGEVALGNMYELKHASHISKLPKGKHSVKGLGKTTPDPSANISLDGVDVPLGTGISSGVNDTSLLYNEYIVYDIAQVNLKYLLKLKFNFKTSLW

As to `O=C(NC1CCN(C(=O)c2cc(Cc3n[nH]c(=O)c4c3NCCC4)ccc2F)CC1)c1cscn1` [Example 751, N-(1-{2-fluoro-5-[(5-oxo-1,2,3,4,5,6-hexahydropyrido[2,3-d]pyridazin-8-yl)methyl]benzoyl}piperidin-4-yl)-1,3-thiazole-4-carboxamide], the inhibition constant Ki (as a rule, the equilibrium dissociation constant of an inhibitor or competing ligand from its target) stood at 1.5 nM. The result for `O=C(Nc1cccc(Cc2n[nH]c(=O)c3c2CCCC3)c1)c1ccccc1Cc1ccccc1` [Example 239, 2-benzyl-N-(3-((4-oxo-3,4,5,6,7,8-hexahydrophthalazin-1-yl)methyl)phenyl)benzamide] reads 554 nM; that for `Cc1ccc(NC(=O)c2cccc(Cc3n[nH]c(=O)c4c3CCCC4)c2)cc1Br` [Example 344, N-(3-bromo-4-methylphenyl)-3-((4-oxo-3,4,5,6,7,8-hexahydrophthalazin-1-yl)methyl)benzamide], 194 nM. Turning to `NC(=O)c1cccc(-c2cc(Cc3n[nH]c(=O)c4c3CCCC4)ccc2F)c1` [Example 252, 2′-fluoro-5′-((4-oxo-3,4,5,6,7,8-hexahydrophthalazin-1-yl)methyl)-1,1′-biphenyl-3-carboxamide], the inhibitory constant (Ki) came out at 19 nM. Consider `CN1CCN(C2CCN(C(=O)c3cc(Cc4n[nH]c(=O)c5c4NCCC5)ccc3F)CC2)CC1` [Example 644], for which the inhibition constant (Ki) amounted to 3 nM.

On to `O=C(c1cccc(-c2cc(CCc3n[nH]c(=O)c4c3CCCC4)ccc2F)c1)N1CCCC1` [Example 269, 4-(2-(6-fluoro-3′-(pyrrolidin-1-ylcarbonyl)-1,1′-biphenyl-3-yl)ethyl)-5,6,7,8-tetrahydrophthalazin-1(2H)-one], for which the Ki is 1050 nM.

`O=C1NC(Cc2ccccc2)C(=O)N1c1cc(Cc2n[nH]c(=O)c3c2NCCC3)ccc1F` (centres unmarked) [Example 605, 5-benzyl-3-{2-fluoro-5-[(5-oxo-1,2,3,4,5,6-hexahydropyrido[2,3-d]pyridazin-8-yl)methyl]phenyl}imidazolidine-2,4-dione]: the Ki stood at 32 nM.

As to `O=c1[nH]nc(Cc2cccc(NS(=O)(=O)c3ccco3)c2)c2c1CCCC2` [Example 118, N-(3-((4-oxo-3,4,5,6,7,8-hexahydrophthalazin-1-yl)methyl)phenyl)furan-2-sulfonamide], the Ki was determined as 2030 nM. Regarding `O=C(NCCc1ccncc1)c1cccc(Cc2n[nH]c(=O)c3c2CCCC3)c1` [Example 381, 3-((4-oxo-3,4,5,6,7,8-hexahydrophthalazin-1-yl)methyl)-N-(2-pyridin-4-ylethyl)benzamide], the inhibitory constant (Ki) was 67 nM. On to `CC1CCCN1Cc1cccc(-c2cccc(Cc3n[nH]c(=O)c4c3CCCC4)c2)c1` (centres unmarked) [Example 129, 4-((3′-((2-methylpyrrolidin-1-yl)methyl)-1,1′-biphenyl-3-yl)methyl)-5,6,7,8-tetrahydrophthalazin-1(2H)-one], for which the Ki was 41 nM. For the compound `O=C(c1cccc(Cc2n[nH]c(=O)c3c2CCCC3)c1)N(Cc1ccccc1)Cc1ccccc1` [Example 423, N,N-dibenzyl-3-((4-oxo-3,4,5,6,7,8-hexahydrophthalazin-1-yl)methyl)benzamide], the inhibitory constant (Ki) worked out at 120 nM.

Turning to `CC1(C(=O)Nc2cccc(Cc3n[nH]c(=O)c4c3CCCC4)c2)CC1` [Example 136, 1-methyl-N-(3-((4-oxo-3,4,5,6,7,8-hexahydrophthalazin-1-yl)methyl)phenyl)cyclopropanecarboxamide], the Ki was determined as 76 nM. Consider `CC(=O)Nc1cccc(-c2cc(C(C)Cc3n[nH]c(=O)c4c3CCCC4)ccc2F)c1` (centres unmarked) [Example 296, N-(2′-fluoro-5′-(1-methyl-2-(4-oxo-3,4,5,6,7,8-hexahydrophthalazin-1-yl)ethyl)-1,1′-biphenyl-3-yl)acetamide], for which the Ki came to 683 nM. As for `CC(C)n1nnc2cc(C(=O)N3CCN(C(=O)c4cc(Cc5n[nH]c(=O)c6c5CCCC6)ccc4F)CC3)ccc21` [Example 728, 4-[4-fluoro-3-({4-[(1-isopropyl-1H-1,2,3-benzotriazol-5-yl)carbonyl]piperazin-1-yl}carbonyl)benzyl]-5,6,7,8-tetrahydrophthalazin-1(2H)-one], the Ki was determined as 1.8 nM.
